As a reminder, the melting point is the temperature, or range, at which the solid turns liquid. Usually IC50 stands for the concentration at which inhibition is half-maximal. Usually Ki stands for a dissociation constant, usually derived from enzyme kinetics or from competition with a known ligand.

One series deals with T1, Human 5-HT6 receptor (Homo sapiens, UniProt P50406).
T1 construct: host or cells: HEK-293
Kind of series: Nova Screen binding assay for human 5-HT6 receptor ([3H]LSD). To be noted: Human recombinant receptor expressed in HEK-293 cells; [3H]LSD 1.5 nM; 60 minutes at 37° C. The protocol:
Nova Screen Binding Assay for Human 5-HT6 Receptor
Pharmacological data Compounds can be tested according to the following the procedures.
Receptor source: Human recombinant expressed in HEK-293 cells
Radioligand: [^3H]LSD (60-80 Ci/mmol)
Final ligand concentration—[1.5 nM]
Non-specific determinant: Methiothepin mesylate—[0.1 μM]
Reference compound: Methiothepin mesylate
Positive control: Methiothepin mesylate
Incubation conditions: Reactions were carried out in 50 mM TRIS HCl (pH 7.4) containing 10 mM MgCl2, 0.5 mM EDTA for 60 minutes at 37° C. The reaction was terminated by rapid vacuum filtration onto glass fiber filters. Radioactivity trapped onto the filters was determined and compared to control values in order to ascertain any interactions of test compound(s) with the cloned serotonin-5HT6 binding site.
Mol. Pharmacol. (43): 320-327 (1993).

T1 sequence (P50406 whole entry): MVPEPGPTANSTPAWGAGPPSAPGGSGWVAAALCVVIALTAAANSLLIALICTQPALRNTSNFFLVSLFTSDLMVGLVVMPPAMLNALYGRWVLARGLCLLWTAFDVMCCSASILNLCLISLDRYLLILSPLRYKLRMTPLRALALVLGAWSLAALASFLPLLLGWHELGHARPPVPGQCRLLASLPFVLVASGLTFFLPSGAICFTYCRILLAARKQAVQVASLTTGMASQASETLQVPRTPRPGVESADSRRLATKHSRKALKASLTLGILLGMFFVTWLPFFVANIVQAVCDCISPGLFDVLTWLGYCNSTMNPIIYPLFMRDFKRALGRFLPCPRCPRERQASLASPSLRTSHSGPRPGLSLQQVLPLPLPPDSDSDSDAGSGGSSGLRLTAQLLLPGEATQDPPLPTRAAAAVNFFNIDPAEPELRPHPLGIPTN

`CN(C)C1CCc2c(c3cc(Cl)ccc3n2S(=O)(=O)c2ccc(F)cc2)C1` (stereo not drawn) [Example 20, [6-Chloro-9-(4-fluorobenzenesulfonyl)-2,3,4,9-tetrahydro-1H-carbazol-3-yl]dimethylamine]: the melting point is 150 to 155 °C.
Still for that read-out and setting: the result for `COc1ccc2c(c1)c1c(n2S(=O)(=O)c2cccc(C(F)(F)F)c2)CCC(N(C)C)C1` (stereo not drawn) [Example 31, [6-Methoxy-9-(3-trifluoromethylbenzenesulfonyl)-2,3,4,9-tetrahydro-1H-carbazol-3-yl]dimethylamine] reads 144 to 146 °C.
Still for that read-out and setting: next, `CN(C)C1CCc2c(c3cc(Cl)ccc3n2S(=O)(=O)c2ccccc2)C1` (stereo not drawn): 150 to 155 °C; `CN(C)C1CCc2c(c3cc(Br)ccc3n2S(=O)(=O)c2cccc(Cl)c2Cl)C1` (stereo not drawn) [Example 39, [6-Bromo-9-(2,3-dichlorobenzenesulphonyl)-2,3,4,9-tetrahydro-1H-carbazol-3-yl]dimethylamine]: 189 to 192 °C.
Compound `CC(C)c1ccc(S(=O)(=O)n2c3c(c4cc(F)ccc42)CC(N(C)C)CC3)cc1` (stereo not drawn) [Example 23, [6-Fluoro-9-(4-isopropylbenzenesulfonyl)-2,3,4,9-tetrahydro-1H-carbazol-3-yl]dimethylamine] came in with a melting point of 95.4 to 103.8 °C. In addition, on Human 5-HT6 receptor, the half-maximal inhibitory concentration (IC50) amounted to 33.4 nM and the Ki is 15.5 nM.
Compound `CSc1ccc2c(c1)c1c(n2S(=O)(=O)c2ccc(F)cc2)CCC(N(C)C)C1` (stereo not drawn) [Example 35] displayed a melting point of 148.9 to 156.1 °C. At Human 5-HT6 receptor, the IC50 was determined as 47.1 nM and the Ki turned out to be 24.9 nM.
`COc1ccc2c(c1)c1c(n2S(=O)(=O)c2ccc(Br)cc2)CCC(N(C)C)C1` (stereo not drawn) [Example 29, [6-Methoxy-9-(4-bromobenzenesulfonyl)-2,3,4,9-tetrahydro-1H-carbazol-3-yl]dimethylamine] showed a melting point of 173.2 to 173.8 °C. On Human 5-HT6 receptor, the IC50 was determined as 28.9 nM and the Ki is 15.1 nM.
For `COc1ccc2c(c1)c1c(n2S(=O)(=O)c2ccc(C)cc2)CCC(N(C)C)C1` (stereo not drawn) [Example 27, [6-Methoxy-9-(4-methylbenzenesulfonyl)-2,3,4,9-tetrahydro-1H-carbazol-3-yl]dimethylamine], the melting point lay within 131.8 to 140 °C. Besides, at Human 5-HT6 receptor, the IC50 is 11.7 nM and the Ki turned out to be 5.89 nM.
Regarding `COc1ccc2c(c1)c1c(n2S(=O)(=O)c2ccccc2)CCC(N(C)C)C1` (stereo not drawn) [Example 26, [6-Methoxy-9-benzenesulfonyl-2,3,4,9-tetrahydro-1H-carbazol-3-yl]dimethylamine], on Human 5-HT6 receptor, the IC50 is 10.8 nM and the Ki is 5.44 nM.
`CSc1ccc2c(c1)c1c(n2S(=O)(=O)c2ccc(C)cc2)CCC(N(C)C)C1` (stereo not drawn) [Example 33, [6-Methylthio-9-(4-methylbenzenesulfonyl)-2,3,4,9-tetrahydro-1H-carbazol-3-yl]dimethylamine] registered a melting point of 105.2 to 115 °C. On Human 5-HT6 receptor, the IC50 amounted to 26.1 nM and the inhibition constant Ki worked out at 13.8 nM.
`CN(C)C1CCc2c(c3cc(F)ccc3n2S(=O)(=O)c2ccc(Br)cc2)C1` (stereo not drawn) [Example 24, [6-Fluoro-9-(4-bromobenzenesulfonyl)-2,3,4,9-tetrahydro-1H-carbazol-3-yl]dimethylamine] gave a melting point of 170.6 to 174.1 °C. On Human 5-HT6 receptor, the IC50 worked out at 99.7 nM and the inhibition constant (Ki) is 43.5 nM.
Turning to `CN(C)C1CCc2c(c3cc(F)ccc3n2S(=O)(=O)c2ccccc2)C1` (stereo not drawn) [Example 21, [6-Fluoro-9-benzenesulfonyl-2,3,4,9-tetrahydro-1H-carbazol-3-yl]dimethylamine], the melting point was 127.7 to 130.3 °C. Further, on Human 5-HT6 receptor, the IC50 is 30.5 nM and the Ki was determined as 15.7 nM.
The like results for `Cc1ccc(S(=O)(=O)n2c3c(c4cc(F)ccc42)CC(N(C)C)CC3)cc1` (stereo not drawn) [Example 22, [6-Fluoro-9-(4-methylbenzenesulfonyl)-2,3,4,9-tetrahydro-1H-carbazol-3-yl]dimethylamine] were, in that order, 148.8 to 153 °C, 64.3 nM and 32.4 nM.
The like results for `COc1ccc2c(c1)c1c(n2S(=O)(=O)c2ccc(F)cc2)CCC(N(C)C)C1` (stereo not drawn) [Example 30, [6-Methoxy-9-(4-fluorobenzenesulfonyl)-2,3,4,9-tetrahydro-1H-carbazol-3-yl]dimethylamine] were, in that order, 160.7 to 163.4 °C, 52.3 nM and 24.3 nM.
`CC(C)c1ccc(S(=O)(=O)n2c3c(c4cc(Br)ccc42)CC(N(C)C)CC3)cc1` (stereo not drawn) came in with a melting point of 152.75 to 154.98 °C.
`CN(C)C1CCc2c(c3cc(Br)ccc3n2S(=O)(=O)c2ccccc2Br)C1` (stereo not drawn) [Example 14, [6-Bromo-9-(2-bromobenzenesulphonyl)-2,3,4,9-tetrahydro-1H-carbazol-3-yl]dimethylamine] gave a melting point of 158.78 to 161.04 °C.
As to `CN(C)C1CCc2c(c3cc(F)ccc3n2S(=O)(=O)c2ccc(F)cc2)C1` (stereo not drawn) [Example 25, [6-Fluoro-9-(4-fluorobenzenesulfonyl)-2,3,4,9-tetrahydro-1H-carbazol-3-yl]dimethylamine], the melting point was in the range of 147.5 to 151.2 °C. Besides, at Human 5-HT6 receptor, the IC50 is 63.5 nM and the inhibitory constant (Ki) stood at 32.8 nM.
The like results for `CN(C)C1CCc2c(c3cc(Br)ccc3n2S(=O)(=O)c2ccc(F)cc2)C1` (stereo not drawn) [Example 11, [6-Bromo-9-(4-fluorobenzenesulphonyl)-2,3,4,9-tetrahydro-1H-carbazol-3-yl]dimethylamine] were, in that order, 158.1 to 160 °C, 20.2 nM and 9.42 nM.
Turning to `CN(C)C1CCc2c(c3ccccc3n2S(=O)(=O)c2ccc(F)cc2)C1` (stereo not drawn) [Example 3, 9-[(4-Fluorobenzenesulphonyl)-2,3,4,9-tetrahydro-1H-carbazol-3-yl]dimethylamine], the melting point lay in the range of 130.2 to 132.8 °C. Besides, on Human 5-HT6 receptor, the IC50 is 27 nM and the Ki worked out at 12.5 nM.
`Cc1ccc(S(=O)(=O)n2c3c(c4cc(Cl)ccc42)CC(N(C)C)CC3)cc1` (stereo not drawn) had a melting point of 130 to 138 °C.

Values taken from US8143303B2, “Carbazole derivatives as functional 5-HT6 ligands” (Suven Life Sciences Limited, priority 2005, dated 2012).
